Measured values published in paper PMC10096344 (Molecules, 2023).

Experiments:
[1] = tested on: P. aeruginosa (ATCC27853) biofilm; test: Bacterial biofilm formation (FITC staining, crystal violet staining); format: cell-based, Pseudomonas aeruginosa
Protocol: The bacterial biofilm growth and measurement was performed according to our previously reported method. Briefly, P. aeruginosa (ATCC27853) was cultured in the tube with nutrient broth containing 2% (w/v) glucose, shaken at 220 rpm for 12 h at 37 °C. The suspension was diluted to 1 × 10^6 CFU/mL and added to 96-well plates, the bacteria was cultured for 24 h at 37 °C for biofilm growth and the planktonic bacterial of each well was removed by PBS rinsing three times. To observe the biofilm formation, the fluorescein isothiocyanate (FITC) was added into the plates and incubated for 2 h at 37 °C; the labeled biofilm was then washed by PBS and visualized under the fluorescence microscopy (Olympus CKX53, Tokyo, Japan). The measurement of biofilm was performed according to the following procedure: the mature biofilm was fixed with 150 μL methanol and left to air dry, then stained with 150 μL of 1% (w/v) crystal violet solution for 15 min at room temperature. The plate was rinsed with PBS three times and 150 μL of glacial acetic acid was added to each well; the optical density was measured at 630 nm optical density using a microplate reader (Bio-Tek ELX800, Berten, USA).

[2] = tested on: pyr genes (pyrA, pyrB, pyrC, pyrD, pyrE and pyrF); test: RT-PCR (qPCR) of pyr genes; format: cell-based, Pseudomonas aeruginosa; settings: LP4C 10 μg/mL vs control
Protocol: The total RNA was isolated from P. aeruginosa cultures, and qPCR amplification was performed according to the instrument of the quantitative PCR system (Stratagene Mx3005P, Agilent, USA); the thermal cycler was then initiated by denaturation procedure for 2 min at 93 °C followed by 40 cycles of 1 min at 93 °C and 2 min at 55 °C. The gene-specific PCR primers were listed in Supplementary Table S3. The relative expression of genes was analyzed by the 2^−ΔΔCt method with normalization to gyrB level.

[3] = tested on: S. typhimurium strains TA97, TA98, TA100 and TA102; test: Bacterial reverse mutation assay (Ames assay), all strains; format: cell-based, Salmonell typhimurium
Protocol: (§1) A sample of 2-aminofluorene (10 μg/plate) was used for TA97, TA98, TA100 +S9 test strains, while 1,8-dihydroxyanthraquinone (60 μg/plate) was used for the TA102 +S9 test strain. The histidine was added with the same amount. The plates were incubated for 48 h at 37 °C; the number of colonies was then counted per plate.

S. typhimurium TA100 = test: Bacterial reverse mutation assay (Ames assay); format: cell-based, Salmonell typhimurium; settings: n = 3
Protocol: as §1

S. typhimurium TA97 = test: Bacterial reverse mutation assay (Ames assay); format: cell-based, Salmonell typhimurium; settings: n = 3
Protocol: as §1

S. typhimurium TA98 = test: Bacterial reverse mutation assay (Ames assay); format: cell-based, Salmonell typhimurium; settings: n = 3
Protocol: as §1

S. typhimurium TA102 = test: Bacterial reverse mutation assay (Ames assay); format: cell-based, Salmonell typhimurium; settings: n = 3
Protocol: as §1

[4] = tested on: CCC-HHM-2 (human embryonic myocardial tissue cell); test: Cytotoxicity test, CCK-8; format: cell-based
Protocol: (§2) Optical density was calculated by the microplate reader (BioTek flx800, Berten, USA).

[5] = tested on: HUVEC (human umbilical vein endothelial cell); test: Cytotoxicity test, CCK-8; format: cell-based
Protocol: as §2

[6] = tested on: P. aeruginosa (ATCC27853); test: Transcriptome assay (RNA-seq); format: cell-based, Pseudomonas aeruginosa; settings: LP4C 10 μg/mL vs Vehicle Treatment Group
Protocol: The RNA sequencing was performed using Illumina HiSeq4000 according to the operation instructions (Illumina, CA, USA). Differential gene expression analysis of LP4C treatment and control groups was conducted; KEGG signaling pathway analysis was performed to map the connection of multiple genes.

[7] = Pharmacokinetics measurement; format: in vivo; settings: SD rats; for plasma half-life: single dose
C57BL/6 mice = format: in vivo
Protocol: All animals were closely observed every day for three weeks. The body weight and toxic effects were monitored and the survival rate was calculated. At the end of experiment, the survival mice were euthanized; vital organs, including heart, liver, lung, kidney and spleen, were then excised, weighed and preserved for histopathological observation.

[8] = 200 μg/mL vs anti-biofilm concentration of LP4C
[9] = LP4C under 200 μg/mL, 24 h, vs vehicle

N#CC1=C(N)Oc2c(c(=O)oc3ccccc23)C1c1cc(C(F)(F)F)cc(C(F)(F)F)c1 (centres unmarked) [LP4C]
biofilm formation, crystal violet staining ([1]; LP4C 5 μg/mL to 200 μg/mL): could inhibit the biofilm formation in a dose-dependent manner
formation of biofilm, FITC staining ([1]; LP4C 5-200 μg/mL vs Vehicle Treatment Group): suppressed the formation of biofilm in a dose-dependent manner
concentration at which biofilm formation was still inhibited ([1]; inhibited even at this concentration): 5 µg/mL
expression of pyr genes [2]: could inhibit the expression of pyr genes significantly
number of bacterial revertant colonies vs DMSO negative control ([3]; LP4C 50 μg/plate to 5000 μg/plate): did not increase
mutagenic potential ([3]; LP4C 50 to 5000 μg/plate, ±S9): no obvious mutagenic potential
number of bacterial revertant colonies (S. typhimurium TA100; LP4C 50 μg/plate, TA100, +S9, mean ± SD): 130 ± 7.68
number of bacterial revertant colonies (S. typhimurium TA100; LP4C 50 μg/plate, TA100, −S9, mean ± SD): 117 ± 5.96
number of bacterial revertant colonies (S. typhimurium TA100; LP4C 200 μg/plate, TA100, +S9, mean ± SD): 133 ± 7.34
number of bacterial revertant colonies (S. typhimurium TA100; LP4C 200 μg/plate, TA100, −S9, mean ± SD): 116 ± 6.42
number of bacterial revertant colonies (S. typhimurium TA100; LP4C 1000 μg/plate, TA100, +S9, mean ± SD): 131 ± 6.75
number of bacterial revertant colonies (S. typhimurium TA100; LP4C 1000 μg/plate, TA100, −S9, mean ± SD): 120 ± 8.33
number of bacterial revertant colonies (S. typhimurium TA100; LP4C 2000 μg/plate, TA100, +S9, mean ± SD): 132 ± 6.95
number of bacterial revertant colonies (S. typhimurium TA100; LP4C 2000 μg/plate, TA100, −S9, mean ± SD): 120 ± 5.71
number of bacterial revertant colonies (S. typhimurium TA100; LP4C 5000 μg/plate, TA100, +S9, mean ± SD): 130 ± 5.69
number of bacterial revertant colonies (S. typhimurium TA100; LP4C 5000 μg/plate, TA100, −S9, mean ± SD): 122 ± 7.67
number of bacterial revertant colonies (S. typhimurium TA97; LP4C 50 μg/plate, TA97, +S9, mean ± SD): 142 ± 7.13
number of bacterial revertant colonies (S. typhimurium TA97; LP4C 50 μg/plate, TA97, −S9, mean ± SD): 123 ± 5.92
number of bacterial revertant colonies (S. typhimurium TA97; LP4C 200 μg/plate, TA97, +S9, mean ± SD): 140 ± 8.55
number of bacterial revertant colonies (S. typhimurium TA97; LP4C 200 μg/plate, TA97, −S9, mean ± SD): 122 ± 7.42
number of bacterial revertant colonies (S. typhimurium TA97; LP4C 1000 μg/plate, TA97, +S9, mean ± SD): 142 ± 5.96
number of bacterial revertant colonies (S. typhimurium TA97; LP4C 1000 μg/plate, TA97, −S9, mean ± SD): 119 ± 8.52
number of bacterial revertant colonies (S. typhimurium TA97; LP4C 2000 μg/plate, TA97, +S9, mean ± SD): 140 ± 6.47
number of bacterial revertant colonies (S. typhimurium TA97; LP4C 2000 μg/plate, TA97, −S9, mean ± SD): 120 ± 8.53
number of bacterial revertant colonies (S. typhimurium TA97; LP4C 5000 μg/plate, TA97, +S9, mean ± SD): 141 ± 7.65
number of bacterial revertant colonies (S. typhimurium TA97; LP4C 5000 μg/plate, TA97, −S9, mean ± SD): 112 ± 9.83
number of bacterial revertant colonies (S. typhimurium TA98; LP4C 50 μg/plate, TA98, +S9, mean ± SD): 32 ± 3.6
number of bacterial revertant colonies (S. typhimurium TA98; LP4C 50 μg/plate, TA98, −S9, mean ± SD): 26 ± 2.2
number of bacterial revertant colonies (S. typhimurium TA98; LP4C 200 μg/plate, TA98, +S9, mean ± SD): 33 ± 4.1
number of bacterial revertant colonies (S. typhimurium TA98; LP4C 200 μg/plate, TA98, −S9, mean ± SD): 26 ± 4.8
number of bacterial revertant colonies (S. typhimurium TA98; LP4C 1000 μg/plate, TA98, +S9, mean ± SD): 32 ± 4.7
number of bacterial revertant colonies (S. typhimurium TA98; LP4C 1000 μg/plate, TA98, −S9, mean ± SD): 25 ± 5.4
number of bacterial revertant colonies (S. typhimurium TA98; LP4C 2000 μg/plate, TA98, +S9, mean ± SD): 32 ± 5.8
number of bacterial revertant colonies (S. typhimurium TA98; LP4C 2000 μg/plate, TA98, −S9, mean ± SD): 26 ± 6.7
number of bacterial revertant colonies (S. typhimurium TA98; LP4C 5000 μg/plate, TA98, +S9, mean ± SD): 31 ± 5.2
number of bacterial revertant colonies (S. typhimurium TA98; LP4C 5000 μg/plate, TA98, −S9, mean ± SD): 24 ± 3.5
number of bacterial revertant colonies (S. typhimurium TA102; LP4C 50 μg/plate, TA102, +S9, mean ± SD): 276 ± 11.2
number of bacterial revertant colonies (S. typhimurium TA102; LP4C 50 μg/plate, TA102, −S9, mean ± SD): 260 ± 10.3
number of bacterial revertant colonies (S. typhimurium TA102; LP4C 200 μg/plate, TA102, +S9, mean ± SD): 281 ± 9.36
number of bacterial revertant colonies (S. typhimurium TA102; LP4C 200 μg/plate, TA102, −S9, mean ± SD): 271 ± 5.68
number of bacterial revertant colonies (S. typhimurium TA102; LP4C 1000 μg/plate, TA102, +S9, mean ± SD): 279 ± 10.6
number of bacterial revertant colonies (S. typhimurium TA102; LP4C 1000 μg/plate, TA102, −S9, mean ± SD): 267 ± 8.35
number of bacterial revertant colonies (S. typhimurium TA102; LP4C 2000 μg/plate, TA102, +S9, mean ± SD): 280 ± 11.3
number of bacterial revertant colonies (S. typhimurium TA102; LP4C 2000 μg/plate, TA102, −S9, mean ± SD): 262 ± 8.44
number of bacterial revertant colonies (S. typhimurium TA102; LP4C 5000 μg/plate, TA102, +S9, mean ± SD): 273 ± 12.6
number of bacterial revertant colonies (S. typhimurium TA102; LP4C 5000 μg/plate, TA102, −S9, mean ± SD): 256 ± 9.21
non-toxic concentration relative to anti-biofilm concentration [4, 8]: at least 40 times
cell viability (CCK-8) [4, 9]: the cell viability was not affected
non-toxic concentration relative to anti-biofilm concentration [5, 8]: at least 40 times
cell viability (CCK-8) [5, 9]: the cell viability was not affected
most enriched pathway of DEGs (transcriptome) [6]: the DEGs number of pyrimidine metabolism was the most enriched
time during which blood concentration increased after administration ([7]; intragastric 10 mg/kg): ≤ 4 h
bioavailability ([7]; intragastric 10 mg/kg vs intravenous 5 mg/kg): 46.35%
plasma half-life ([7]; intragastric 10 mg/kg): 11 ± 1.26 h
time during which serum concentration declined rapidly ([7]; intravenous 5 mg/kg): 10 to 60 min
plasma half-life ([7]; intravenous 5 mg/kg): 14 ± 3.05 h
survival rate vs Control (C57BL/6 mice; 20 mg/kg to 320 mg/kg intragastric, three weeks): not a significant difference in the survival rate
death and toxicity signs (C57BL/6 mice; 20, 40 and 80 mg/kg intragastric, three-week period): no death and obvious toxicity sign was observed
histopathological changes (H&E) of heart, liver, lung, kidney and spleen (C57BL/6 mice; intragastric, vs control groups): no obvious pathological change was observed, except the slight hemorrhagic phenomena that occurred in the liver section in the 320 mg/kg LP4C Treatment Group
